≈ marks a conversion by molar mass, not a printed value.
Tested on: Streptococcus mutans
Assay: Antimicrobial activity against Streptococcus mutans MT509
Type: functional

Row | MIC [µg/mL] | Structure (SMILES)
1 | 3.13 (≈ 12.9 µM) | CCC(C)CCCCCCCCCCC(=O)O (configuration not stated)
2 | 3.13 (≈ 12.9 µM) | CC(C)CCCCCCCCCCCC(=O)O

From ChEMBL document CHEMBL1154580, “Identification and total synthesis of a novel dimethylated fatty acid from the Caribbean sponge Calyx podatypa” (2000)
